Data reported in US11519922B2, “Methods for identifying risk of chemotherapy-induced cardiotoxicity and targeted medical intervention” (Detroit R&D, Inc., priority 2018, dated 2022).

Tests used:
[1] = molecular target: T1, recombinant sEH (Homo sapiens, UniProt P34913); experiment: Inhibition of EET-dependent sEH activity, reconstituted system; type: biochemical
T1 sequence (P34913 1-555): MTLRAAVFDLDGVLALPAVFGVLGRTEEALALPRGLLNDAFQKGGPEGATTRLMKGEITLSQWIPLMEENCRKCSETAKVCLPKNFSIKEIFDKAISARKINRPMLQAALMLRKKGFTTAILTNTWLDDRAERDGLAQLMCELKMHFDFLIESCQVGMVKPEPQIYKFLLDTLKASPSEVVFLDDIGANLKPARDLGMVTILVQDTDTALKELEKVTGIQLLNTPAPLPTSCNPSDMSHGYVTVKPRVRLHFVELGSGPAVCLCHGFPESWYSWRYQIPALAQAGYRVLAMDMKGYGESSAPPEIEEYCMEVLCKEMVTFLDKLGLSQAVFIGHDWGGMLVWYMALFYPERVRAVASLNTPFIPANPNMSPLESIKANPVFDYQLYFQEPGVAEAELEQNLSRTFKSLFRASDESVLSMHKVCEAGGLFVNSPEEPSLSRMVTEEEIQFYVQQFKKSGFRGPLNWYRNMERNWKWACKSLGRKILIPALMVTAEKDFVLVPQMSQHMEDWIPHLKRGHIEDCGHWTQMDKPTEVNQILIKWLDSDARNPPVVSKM

[2] = molecular target: T2, sEH in human kidney cells (ACHN) (Homo sapiens, UniProt P34913); experiment: Inhibition of EET-dependent sEH activity in kidney cells; type: cell-based; conditions: EET 1 μM
T2 construct: recombinant sEH and human kidney cells (ACHN); endogenous in cells; host or cells: ACHN human kidney cells
T2 sequence (P34913 1-555): T1 sequence (P34913 1-555)

[3] = molecular target: T3, sEH enzyme in H9c2 cells (Rattus norvegicus, UniProt P80299); experiment: 14,15-DHET formation from added 14,15-EET by H9c2 cells; type: cell-based
T3 construct: host or cells: H9c2 rat cardiomyocytes
T3 sequence (P80299 1-554): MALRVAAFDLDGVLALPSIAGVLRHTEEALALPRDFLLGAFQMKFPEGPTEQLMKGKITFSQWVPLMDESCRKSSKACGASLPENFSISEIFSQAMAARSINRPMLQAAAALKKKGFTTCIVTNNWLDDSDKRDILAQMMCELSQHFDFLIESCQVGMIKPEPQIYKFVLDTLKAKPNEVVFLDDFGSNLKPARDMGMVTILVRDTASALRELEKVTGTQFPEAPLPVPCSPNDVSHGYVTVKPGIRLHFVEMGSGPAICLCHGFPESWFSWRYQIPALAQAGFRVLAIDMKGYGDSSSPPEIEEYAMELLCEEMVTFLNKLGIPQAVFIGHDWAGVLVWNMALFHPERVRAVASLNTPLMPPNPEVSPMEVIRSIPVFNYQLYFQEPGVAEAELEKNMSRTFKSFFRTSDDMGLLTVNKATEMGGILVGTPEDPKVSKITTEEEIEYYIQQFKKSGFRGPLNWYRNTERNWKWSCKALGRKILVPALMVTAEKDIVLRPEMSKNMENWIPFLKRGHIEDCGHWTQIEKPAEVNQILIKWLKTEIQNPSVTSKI
Experimental: Expression of sEH enzyme in the cells was confirmed by detection of increased 14,15-DHET formation activity after 1 μM EET (substrate) treatment.
sEH enzyme converts 14,15-EET to 14,15-DHET, so differential levels of 14,15-DHET will reflect sEH activity. After addition of 1 μM 14,15-EET to H9c2 cells, ˜250 ng/ml 14,15-DHET was formed in cell media in 30 min and 4.5-fold higher level of 14,15-DHET was formed when the EET level was increased from 1 μM to 5 μM, verifying EET-dose-dependent 14,15-DHET formation by rat H9c2 cardiomyocyte cells.

EET-dependent sEH activity ([1]; EET 1 μM, reconstituted system with recombinant sEH) | inhibitor of the sEH activity (overall statement) ([1]; recombinant sEH and ACHN cells) | EET-dependent sEH activity [2] | 14,15-DHET formed in cell media ([3]; 1 μM 14,15-EET, 30 min) [ng/mL] | higher level of 14,15-DHET formed ([3]; EET level increased from 1 μM to 5 μM) [fold] | Compound
inhibited | potent inhibitors | inhibited |  |  | C=CCc1ccc(O)c(-c2ccc(O)c(CC=C)c2)c1 [Honokiol]
 |  |  | ~250 | 4.5 | CCCCCC1OC1C/C=C\C/C=C\C/C=C\CCCC(=O)O (centres unmarked) [14,15-EET]
